This is an account of results in patent publication US5164296A, “Assay methods involving ouabain” (priority 1990, dated 1992).

The nature of data set [1]: Protein binding in plasma. The format is in vitro ADME. The note with it: EDLF described in the present invention.
The conditions of data set [2]: 6.0 N HCl at 110° C.; cited from earlier work.
Data set [3] addresses T1, (Na^+ +K^+)ATPase (Canis lupus familiaris, UniProt P50997).
T1 construct: (Na^+ +K^+)ATPase was purified from the outer medulla of dog kidney; from tissue; host or cells: dog kidney outer medulla, purified membrane enzyme
Put plainly: Inhibition of (Na^+ +K^+)ATPase activity (coupled optical assay). The format is biochemical, dog. The note with it: inhibition of (Na^+ +K^+)ATPase activity. On the procedure:
More specifically, (Na^+ +K^+)ATPase was purified from the outer medulla of dog kidney using the angle rotor procedure (Jorgensen, P.L., Biochim. Biophys. Acta, 356:36-52 (1974)) and stored frozen at -60° C. at 1.0 mg/ml in 25 mM imidazole-HCl (pH 7.5) and 1.0 mM EDTA, in small aliquots. (Na^+ +K^+)ATPase activity was determined at 37° C. from rate measurements in 1.0 ml of coupled optical assay mixture comprising 20 mM KCl, 100 mM NaCl, 4.5 mM MgSO4, 5.0 mM EGTA, 3.0 mM ATP-Na2, 1.2 mM phosphoenol-pyruvate-tricyclohexylammonium, 0.3 mM NADH, 100 mM TES-Tris (ph 7.4), 5.0 units of lactate dehydrogenase, and 5.0 units of pyruvate kinase (Hamlyn, J.M. et al, Nature, 300:650-652 (1982)). (Na^+ +K^+)ATPase activity was 99% ouabain-inhibitable with activities of 10-18 μmol/min/mg of membrane protein. Maximally effective concentrations of digitalis-like activity had no effect on the enzymatic components of the coupled optical assay as determined by inspection of rates in response to addition of 20-50 μM ADP. The maximal capacity of the coupled optical assay was at least 500-2000 fold greater than the typical maximal hydrolytic rate of the (Na^+ +K^+)ATPase and was not rate limiting under any assay condition described herein.
The inhibition of (Na^+ +K^+)ATPase was carried out as described above.

The test system of the next data set is digoxin antibodies. The note with it: cited from earlier work.
Data set [4] concerns rings of aorta from guinea pigs. Put plainly: Vasoactive properties in rings of aorta from guinea pigs. Further details: species or system guinea pig. The protocol: The aortic rings were incubated at 37° C. in phosphate buffered saline. The rings were submaximally contracted for 3 to 7 min, every 35 min, with 0.2 or 1.0 μM histamine. […] The apparent half-time for washout of the augmented tension response in the presence of plant ouabain was also much greater than 60 min.

Data set [5] relates to left atria from guinea pigs. The experiment in a line: Inotropic properties in left atria from guinea pigs. Further details: species or system guinea pig. On the procedure:
Atria were incubated at 37° C. in phosphate buffered saline comprising 130 mM NaCl, 5.4 mM KCl, 1.8 mM MgCl2, 0.4 mM NaH2 PO4, 19 mM NaHCO3 and 5.4 g of glucose (pH 7.3-7.4), and gassed with 95% O2 /5% CO2. Tissues were stimulated at 1 Hz with twice threshold square pulses (0.8 to 1.0 V) of 0.7 to 1.2 msec duration. Resting tension was optimized for maximum isometric force generation. Control records were obtained once the phasic force was stabilized. […] For comparison, 200 nM plant ouabain evoked an inotropic response of 311±41% (N=4 experiments) which returned to normal with a half-time of approximately 5 min upon washout.

Data set [6] has as its system antibodies having binding specificity for ouabain. Put plainly: Competition ELISA for binding to antibodies having binding specificity for ouabain. Also on record: species or system rabbit. The protocol: The competition for binding to antibodies having binding specificity for ouabain was carried out by employing polyclonal antisera having titers >10,000 generated against ouabain in rabbits as described in Example 2 below. […] A competition ELISA was carried out as follows:
Microtiter plates were coated with 50 μl of a 1.0 ng/ml solution of Conjugate 4. Following washes with wash buffer comprising 0.9% (w/v) NaCl and 0.5% (v/v) Tween 20 (hereinafter "wash buffer"), residual sites were blocked with buffer comprising 136 mM NaCl, 1.46 mM KH2 PO4, 0.8 mM Na2 HPO4, 0.028 mM thimerosal, 0.5% (v/v) Tween 20, and 1.0% (w/v) BSA (pH 7.4). Known amounts of free ouabain or unknown samples were introduced followed by the addition of ouabain antisera at an overall dilution of 1:2×10^6. Incubations at 23° C. for 1 hr were terminated by repeated washing with wash buffer. Subsequently, a second incubation at […] for 1hr was performed with a 1:10^3 dilution of goat anti-rabbit IgG-peroxidase conjugate (Boehringer Mannheim, Indianapolis, Ind.). Following extensive washing with wash buffer, equal parts of 3, 3', 5, 5'-tetramethylbenzindine and hydrogen peroxide (Kirkegaard and Perry, Gaitheresburg, Md.) were added and incubated at 23° C. for 15 min. Color development was terminated by addition of 1.0 M H3 PO4 and read at 450 nm with a plate reader. […] Each data point is the mean ± S.E.M. All lines were fitted by nonlinear regression to a sigmoidal function.

For data set [7], the system named is (Na^+ +K^+)ATPase. The conditions noted are these: type II-phosphorylating conditions; cited from earlier work.

In general, Hill coefficient refers to the slope factor of the fitted curve. For the molecule `CC1OC(OC2CC(O)C3(CO)C4C(O)CC5(C)C(C6=CC(=O)OC6)CCC5(O)C4CCC3(O)C2)C(O)C(O)C1O` (stereo not drawn) [human ouabain], in data set [1], the “protein binding in plasma” value is recorded as “not highly protein bound in plasma”. Besides, the “rate of loss of inhibitory activity compared with ouabain” value in data set [2] is reported as “significantly greater”. Besides, the Hill coefficient was -1.28 on (Na^+ +K^+)ATPase [3] and -0.65 in data set [6] (competition ELISA). For the same molecule, the Kd was 13.9 nM on (Na^+ +K^+)ATPase [3] (read-out: calculated apparent Kd value, 37° C.) and 1.6 nM in data set [6] (competition ELISA, antisera 1:2×10^6, read-out: calculated apparent Kd value). Further, the “cross-reaction with digoxin antibodies” value in the data set on digoxin antibodies is on record as “does not cross-react”. In data set [4] (170 nM human ouabain, 200 nM plant ouabain), the “effect on baseline tension” value is recorded as “no effect”. In addition, the activity at 0.17 µM in data set [4] (Cavia porcellus, 0.5 h, read-out: histamine-evoked tension, % of control) amounted to 150 ± 14%. Moreover, the “apparent half-time for washout of the augmented tension response” value in data set [4] (upon washout) is “greater than 60 min”. Besides, in data set [5] (85 nM), the “time to plateau of increase in peak force” value is 34 min. Further, the activation at 0.17 µM in data set [5] (Cavia porcellus, read-out: developed force above the control) was 294 ± 28%. Moreover, the “apparent half-time for washout of the inotropic response” value in data set [5] (upon washout) is given as “approximately 5 min”. Also, the “cross-reaction with antibodies having binding specificity for ouabain” value in data set [6] (within experimental error) is 100%. In the data set on (Na^+ +K^+)ATPase [7], the “affinity higher than that of ouabain” value is reported as 12-25 fold.
